Laboratory results taken from US12415785B2, “Compound modulators of sting” (CTXT PTY LTD, priority 2019, dated 2025).
pEC50: −log10 of the molar value. Read-outs that look alike come from different tables or passages of the source.

Assays:
human STING (HAQ) [1] = assay: Differential scanning fluorimetry (DSF), huSTING (HAQ); format: binding; conditions: 2 μM protein, compound 100 μM; Tm with ligand minus Tm of protein alone (1% DMSO)
Description: (§1) Biophysical experiments were performed with three different recombinant human STING protein variants designated according to allelic nomenclature of Yi et al., (2013). […] These were ligated into a modified pET43a E. coli expression vector designed to encode N-terminal His tag followed by tobacco etch virus protease (TEV) cleavage site and a STING gene sequence. The resulting protein sequences for the three allelic variants are listed below: […] Cultures were then cooled to 16° C. and protein expression induced by the addition of isopropyl β-D-1-thiogalactopyranoside to a final concentration of 0.5 mM and the cultures shaken overnight for further 16 hours. Following expression, cell cultures were centrifuged at 5000×g for 20 min and cell pellet stored frozen at −70° C. Protein purification was initiated by thawing the cell pellet in Lysis buffer (25 mM Tris-HCl pH 8.0, 300 mM NaCl, 5 mM DTT, 2 mM MgCl2, 10 mM imidazole, 0.5 mg/ml lysozyme, benzonase endonuclease [EMD Millipore], 1 mM PMSF, complete protease inhibitor tablets EDTA-free [Roche]) using a ratio of 7 ml of buffer per 1 g of cells. Cells were further lysed by 3 passes through an ice cooled Avestin C5 cell crusher and then centrifuged at 48,000×g at 4° C. […] The IMAC column was then sequentially washed with IMAC Wash buffer 1 and IMAC Wash buffer 2 (25 mM Tris-HCl pH 8.0, 300 mM NaCl, 5 mM DTT, 20 mM Imidazole) and bound His-TEV-hSTING protein eluted with IMAC Elution buffer (25 mM Tris-HCl pH 8.0, 300 mM NaCl, 5 mM DTT, 250 mM Imidazole). […] Differential scanning fluorimetry (DSF) is a rapid screening method for identifying low-molecular-weight ligands that bind and, in doing so, stabilize (or sometimes destabilize) purified proteins (Niesen 2007). DSF monitors thermal unfolding of protein in the presence of a fluorescent dye and is typically performed using a real-time PCR instrument. The temperature at which a protein unfolds is measured by an increase in the fluorescence of a dye with affinity for hydrophobic parts of the protein that are gradually being exposed during unfolding. The fluorescence of the dye is quenched in aqueous environments, but when the dye associates with hydrophobic sites on unfolded protein, its fluorescence increases. The fluorescence intensity is plotted as a function of the temperature, generating a sigmoidal curve that can be described by a two-state transition. The inflection point of the transition curve (Tm) is calculated using simple equations such as that of Boltzmann. Thermal stability of STING protein (with and without bound ligand) was measured using previously described methodology (Seabrook & Newman, 2013), with samples tested in triplicate using 96-well PCR microplate (AB Gene, ABGAB-0600/W). […] Sealed plates were placed into Bio-Rad CFX96/C1000 thermocycler and FRET scanning mode (λ^excitation of 490 nm and reads at a λ^emission of 570 nm). Melting curves were recorded from 20° C. to 100° C. in 0.5° C. increments every 30 seconds with a read at each increment. Data were analysed using “Meltdown analysis” protocol described by Rosa (2015).

human STING (WT) = human STING (WT) (Homo sapiens (Human), UniProt Q86WV6, H232R); assay: Differential scanning fluorimetry (DSF), huSTING (WT); format: binding; conditions: for ΔTm at 100 µM: read-out: DSF huSTING (WT) ΔTm (° C.)
Chain of human STING (WT) (Q86WV6 other isoform, or with tags, fused parts or gaps, stated change not applied): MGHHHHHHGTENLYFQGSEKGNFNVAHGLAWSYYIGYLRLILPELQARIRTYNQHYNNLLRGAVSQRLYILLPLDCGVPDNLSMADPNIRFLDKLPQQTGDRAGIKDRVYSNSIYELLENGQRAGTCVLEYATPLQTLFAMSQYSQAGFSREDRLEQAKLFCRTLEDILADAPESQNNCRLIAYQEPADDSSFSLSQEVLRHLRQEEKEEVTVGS
Description: as §1

[2] = biological target: human HAQ isoform of STING (THP-1 STING Lucia ISG cells) (Homo sapiens (Human), UniProt Q86WV6, G230A/H232R/R293Q/R71H); assay: THP-1 STING Lucia ISG reporter cell line assay; format: cell-based; conditions: 24 h incubation, QUANTI-Luc luminescence
Chain of human HAQ isoform of STING (THP-1 STING Lucia ISG cells) (Q86WV6 whole entry R71H/G230A/H232R/R293Q, canonical isoform): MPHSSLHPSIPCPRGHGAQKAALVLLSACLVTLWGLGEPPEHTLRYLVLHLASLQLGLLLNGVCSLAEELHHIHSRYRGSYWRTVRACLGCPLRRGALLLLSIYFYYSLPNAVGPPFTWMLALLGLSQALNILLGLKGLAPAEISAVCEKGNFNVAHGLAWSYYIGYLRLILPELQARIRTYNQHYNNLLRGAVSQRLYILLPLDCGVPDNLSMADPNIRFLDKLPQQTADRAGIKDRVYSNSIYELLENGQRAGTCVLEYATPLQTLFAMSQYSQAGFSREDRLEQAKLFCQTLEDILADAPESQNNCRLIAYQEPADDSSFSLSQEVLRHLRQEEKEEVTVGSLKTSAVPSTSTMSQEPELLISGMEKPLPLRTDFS
Description: (§2) THP-1 STING Lucia ISG cells (InvivoGen #thpI-isg) were cultured in RPMI-1640 containing 2 mM L-glutamine, 25 mM HEPES, 100 μg/mL Normocin (InvivoGen) and 10% heat-inactivated FBS. Cells were seeded at a density of 7×10^5 cells/mL, maintained at 37° C./5% CO2, and passaged every 3-4 days. Selection pressure was maintained by the addition of 100 μg/mL Zeocin every second passage.
(§3) Assay conditions: cells were harvested and resuspended at a concentration of 5×10^5 cells/mL in fresh growth media. Of this cell preparation 20 μL per well was dispensed into 384 well cell culture plates (Greiner, #781098X) and incubated at 37° C./5% CO2 for 2 hours. Concentration Response Curves (commonly 11 doses) were prepared by 2.5 fold serial dilution starting from 10 mM compound stock solution in DMSO. Compound dilutions were transferred into the cell culture plates using a pintool (0.1 μL transfer), control wells were matched for DMSO. Positive control wells received ML RR—S2 CDA (Med Chem Express HY12885B) in 5 μL of media to a final concentration of 40 μM. All other wells received additional 5 μL of media only to equalise volume. The plates were incubated for 24 h at 37° C./5% CO2.
(§4) For the detection step, QUANTI-Luc (InvivoGen #rep-qlc1) was prepared according to manufacturer's instruction and 10 μL were added per well to the culture plates. Plates were shaken for ten seconds on an orbital shaker and left in the dark at room temperature for two minutes, before luminescence was read on a Perkin Elmer Envision plate reader.
(§5) Data analysis: Luminescence raw data was normalised % activity relative to the signal of the positive control wells and negative control wells which were not treated with compound. The following formula was used to calculate normalised % activity from raw signals: % activity=(sample−negative)/(positive−negative)
(§6) The THP-1 STING Lucia ISG cell EC50 provides an assessment of activity at the human HAQ isoform of STING. For assessing compound activity against the WT human STING isoform, an equivalent method was conducted where the cells used were THP-1-Dual KI-hSTING-R232 (InvivoGen #thpd-r232).

[3] = biological target: WT human STING isoform (THP-1-Dual KI-hSTING-R232 cells) (Homo sapiens (Human), UniProt Q86WV6, H232R); assay: THP-1-Dual KI-hSTING-R232 reporter cell line assay; format: cell-based; conditions: 24 h incubation, QUANTI-Luc luminescence
Chain of WT human STING isoform (THP-1-Dual KI-hSTING-R232 cells) (Q86WV6 whole entry H232R, canonical isoform): as the sequence (Q86WV6 whole entry R71H/G230A/H232R/R293Q, canonical isoform) above, with H71R, A230G, Q293R counted along it
Description: as §2, §3, §4, §5, §6

human STING (HAQ) [4] = biological target: human STING (HAQ) (Homo sapiens, UniProt Q86WV6, G230A/H232R/R293Q); assay: Differential scanning fluorimetry (DSF), huSTING (HAQ); format: binding; conditions: read-out: DSF huSTING (HAQ) ΔTm (° C.)
Chain of human STING (HAQ) (Homo sapiens, UniProt Q86WV6, G230A/H232R/R293Q) (Q86WV6 whole entry G230A/H232R/R293Q, looked up): as the sequence (Q86WV6 whole entry R71H/G230A/H232R/R293Q, canonical isoform) above, with H71R counted along it
Description: as §1

[5] = 2 μM protein, compound 100 μM, Tm with ligand minus Tm of protein alone (1% DMSO)

Row | SMILES | DSF huSTING (HAQ) ΔTm (° C.) (human STING (HAQ) [1]) [°C] | DSF huSTING (WT) ΔTm (° C.) (human STING (WT); [5]) [°C] | pEC50 [2] | pEC50 [3] | ΔTm at 100 µM (human STING (HAQ) [4]; [5]) [°C] | ΔTm at 100 µM (human STING (WT); [5]) [°C] | ΔTm at 100 µM (human STING (HAQ) [4]) [°C] | ΔTm at 100 µM (human STING (WT)) [°C]
1 | COc1c(C(N)=O)ccc2c1nc(-c1c(I)cccc1C(=O)O)n2CCn1c(-c2c(I)cccc2C(=O)O)nc2c(OC)c(C(N)=O)ccc21 (single isomer, unassigned) [Example 19.2, 2,2′-(Ethane-1,2-diylbis(5-carbamoyl-4-methoxy-1H-benzo[d]imidazole-1,2-diyl))bis(3-iodobenzoic acid)] | 21.66 | 6.58 | 4.83 | 4.93 | – | – | – | –
2 | NC(=O)c1ccc2c(c1)nc(-c1c(Br)cccc1C(=O)O)n2CCn1c(-c2c(Br)cccc2C(=O)O)nc2cc(C(N)=O)ccc21 (single isomer, unassigned) [Example 29.2, 2,2′-(Ethane-1,2-diylbis(5-carbamoyl-1H-benzo[d]imidazole-1,2-diyl))bis(3-bromobenzoic acid)] | −5.65 | −6.70 | < 4.40 | < 4.40 | – | – | – | –
3 | COc1c(C(N)=O)ccc2c1nc(-c1cc(Cl)c(Cl)cc1C(=O)O)n2CCn1c(-c2cc(Cl)c(Cl)cc2C(=O)O)nc2c(OC)c(C(N)=O)ccc21 [Example 8, 6,6′-(Ethane-1,2-diylbis(5-carbamoyl-4-methoxy-1H-benzo[d]imidazole-1,2-diyl))bis(3,4-dichlorobenzoic acid)] | – | – | 6.27 | 6.37 | – | – | 23.2 | 6.38
4 | COC(=O)c1cc(Br)ccc1-c1nc2c(OC)c(C(N)=O)ccc2n1CCn1c(-c2ccc(Br)cc2C(=O)OC)nc2c(OC)c(C(N)=O)ccc21 [Example 13, Dimethyl 6,6′-(ethane-1,2-diylbis(5-carbamoyl-4-methoxy-1H-benzo[d]imidazole-1,2-diyl))bis(3-bromobenzoate)] | – | – | < 4.40 | < 4.40 | – | – | – | –
5 | COc1c(C(N)=O)ccc2c1nc(-c1ccc(F)cc1C(=O)O)n2CCn1c(-c2ccc(F)cc2C(=O)O)nc2c(OC)c(C(N)=O)ccc21 [Example 27, 6,6′-(Ethane-1,2-diylbis(5-carbamoyl-4-methoxy-1H-benzo[d]imidazole-1,2-diyl))bis(3-fluorobenzoic acid)] | – | – | 4.95 | 4.98 | 6.17 | 2.62 | – | –
6 | COc1c(C(N)=O)ccc2c1nc(-c1cc(F)ccc1C(=O)O)n2CCn1c(-c2cc(F)ccc2C(=O)O)nc2c(OC)c(C(N)=O)ccc21 [Example 28, 2,2′-(Ethane-1,2-diylbis(5-carbamoyl-4-methoxy-1H-benzo[d]imidazole-1,2-diyl))bis(4-fluorobenzoic acid)] | – | – | 4.90 | < 4.40 | -2.19 | -6.6 | – | –
7 | NC(=O)c1ccc2c(c1)nc(-c1ccc(Cl)cc1C(=O)O)n2CCn1c(-c2ccc(Cl)cc2C(=O)O)nc2cc(C(N)=O)ccc21 [Example 39, 6,6′-(Ethane-1,2-diylbis(5-carbamoyl-1H-benzo[d]imidazole-1,2-diyl))bis(3-chlorobenzoic acid)] | – | – | < 4.40 | < 4.40 | 0.86 | -4.35 | – | –
8 | COc1c(C(N)=O)ccc2c1nc(-c1ccc(C#N)cc1C(=O)O)n2CCn1c(-c2ccc(C#N)cc2C(=O)O)nc2c(OC)c(C(N)=O)ccc21 [Example 51, 2-(5-Carbamoyl-1-(2-(5-carbamoyl-2-(2-carboxy-4-cyanophenyl)-4-methoxy-1H-benzo[d]imidazol-1-yl)ethyl)-4-methoxy-1H-benzo[d]imidazol-2-yl)-5-cyanobenzoic acid] | – | – | – | – | 1.6 | -0.85 | – | –

The next lines start with results.

Row | DSF huSTING (HAQ) ΔTm (° C.) (human STING (HAQ) [1]) [°C] | DSF huSTING (WT) ΔTm (° C.) (human STING (WT); [5]) [°C] | pEC50 [2] | pEC50 [3] | ΔTm at 100 µM (human STING (HAQ) [4]; [5]) [°C] | ΔTm at 100 µM (human STING (WT); [5]) [°C] | SMILES | ΔTm at 100 µM (human STING (HAQ) [4]) [°C] | ΔTm at 100 µM (human STING (WT)) [°C]
9 | – | – | 5.81 | 5.84 | 5.88 | -2.49 | COc1c(C(N)=O)ccc2c1nc(-c1cc(Cl)ccc1C(=O)O)n2CCn1c(-c2cc(Cl)ccc2C(=O)O)nc2c(OC)c(C(N)=O)ccc21 [Example 7, 2,2′-(Ethane-1,2-diylbis(5-carbamoyl-4-methoxy-1H-benzo[d]imidazole-1,2-diyl))bis(4-chlorobenzoic acid)] | – | –
10 | – | – | 5.58 | 5.59 | 28.3 | 4.56 | COc1c(C(N)=O)ccc2c1nc(-c1c(C(=O)O)ccc(Cl)c1F)n2CCn1c(-c2c(C(=O)O)ccc(Cl)c2F)nc2c(OC)c(C(N)=O)ccc21 [Example 12, 2,2′-(Ethane-1,2-diylbis(5-carbamoyl-4-methoxy-1H-benzo[d]imidazole-1,2-diyl))bis(4-chloro-3-fluorobenzoic acid)] | – | –
11 | – | – | 5.88 | 5.70 | 9.15 | 4.74 | COc1c(C(N)=O)ccc2c1nc(-c1ccc(Br)cc1C(=O)O)n2CCn1c(-c2ccc(Br)cc2C(=O)O)nc2c(OC)c(C(N)=O)ccc21 [Example 14, 6,6′-(Ethane-1,2-diylbis(5-carbamoyl-4-methoxy-1H-benzo[d]imidazole-1,2-diyl))bis(3-bromobenzoic acid)] | – | –
12 | – | – | 6.30 | 6.26 | – | – | COc1c(C(N)=O)ccc2c1nc(-c1ccc(Cl)cc1-c1nn[nH]n1)n2CCn1c(-c2c(F)cc(Cl)cc2C(=O)O)nc2c(OC)c(C(N)=O)ccc21 [Example 47, 2-(5-Carbamoyl-1-(2-(5-carbamoyl-2-(4-chloro-2-(2H-tetrazol-5-yl)phenyl)-4-methoxy-1H-benzo[d]imidazol-1-yl)ethyl)-4-methoxy-1H-benzo[d]imidazol-2-yl)-5-chloro-3-fluorobenzoic acid] | – | –
